Experimental data taken from ChEMBL document CHEMBL1949623, “Camphorsulfonic acid catalysed facile tandem double Friedlander annulation protocol for the synthesis of phenoxy linked bisquinoline derivatives and discovery of antitubercular agents” (Bioorg Med Chem Lett, 2012).
pIC50: −log10 of the molar value.

Tested on: NIH3T3
Assay: Cytotoxicity against mouse NIH/3T3 cells assessed as cell viability after 48 hrs by MTT assay
Type: cell-based
Conditions: NIH3T3, 48 h

Row | Compound | pIC50
1 | Clc1ccc2nc(-c3ccc(Oc4c(-c5ccc(Br)cc5)nc5ccc(Cl)cc5c4-c4ccccc4)cc3)cc(-c3ccccc3)c2c1 | 3.48
2 | Clc1ccc2nc(-c3ccc(Oc4c(-c5cccc(Br)c5)nc5ccc(Cl)cc5c4-c4ccccc4)cc3)cc(-c3ccccc3)c2c1 | 3.05
